pIC50: −log10 of the molar value. Active and inactive are the calls of the source. The calls are words filed in the database; no cut-off is given here.
What was measured:
CCRF-CEM = experiment: Cytotoxicity in human CEM cells assessed as reduction in cell viability incubated for 72 hrs by calcein AM cytotoxicity assay; format: functional, cell-based
MCF7 = experiment: Cytotoxicity in human MCF7 cells assessed as reduction in cell viability incubated for 72 hrs by calcein AM cytotoxicity assay; format: functional, cell-based
HeLa = experiment: Cytotoxicity in human HeLa cells assessed as reduction in cell viability incubated for 72 hrs by calcein AM cytotoxicity assay; format: functional, cell-based
G-361 [1] = experiment: Cytotoxicity in human G361 cells assessed as reduction in cell viability incubated for 72 hrs by calcein AM cytotoxicity assay; format: functional, cell-based
BJ = experiment: Cytotoxicity in human BJ cells assessed as reduction in cell viability incubated for 72 hrs by calcein AM cytotoxicity assay; format: functional, cell-based
G-361 [2] = experiment: Induction of apoptosis in human G361 cells assessed as increase in caspase3/7 activity at 10 uM using Ac-DEVD-AMC substrate incubated for 24 hrs by fluorometric assay relative to untreated control; format: functional
G-361 [3] = experiment: Induction of cell cycle arrest in human G361 cells assessed as increase in accumulation at subG1 phase at 1 uM incubated for 24 hrs by propidium iodide staining based flow cytometry; format: functional
G-361 [4] = experiment: Induction of cell cycle arrest in human G361 cells assessed as increase in accumulation at subG1 phase at 10 uM incubated for 24 hrs by propidium iodide staining based flow cytometry; format: functional
G-361 [5] = experiment: Induction of cell cycle arrest in human G361 cells assessed as increase in accumulation at G0/G1 phase at 1 uM incubated for 24 hrs by propidium iodide staining based flow cytometry; format: functional
G-361 [6] = experiment: Induction of cell cycle arrest in human G361 cells assessed as increase in accumulation at G0/G1 phase at 10 uM incubated for 24 hrs by propidium iodide staining based flow cytometry; format: functional
G-361 [7] = experiment: Induction of cell cycle arrest in human G361 cells assessed as reduction in accumulation at G2M phase at 1 uM incubated for 24 hrs by propidium iodide staining based flow cytometry; format: functional
G-361 [8] = experiment: Induction of cell cycle arrest in human G361 cells assessed as reduction in accumulation at G2M phase at 10 uM incubated for 24 hrs by propidium iodide staining based flow cytometry; format: functional
G-361 [9] = experiment: Induction of apoptosis in human G361 cells assessed as induction of caspase-3 expression at 1 uM incubated for 24 hrs by Western blot method; format: functional, cell-based
G-361 [10] = experiment: Induction of apoptosis in human G361 cells assessed as induction of caspase-3 expression at 10 uM incubated for 24 hrs by Western blot method; format: functional, cell-based
G-361 [11] = experiment: Induction of apoptosis in human G361 cells assessed as induction of PARP cleavage at 10 uM incubated for 24 hrs by Western blot method; format: functional, cell-based
G-361 [12] = experiment: Induction of apoptosis in human G361 cells assessed as reduction total Rb protein levels at 10 uM incubated for 24 hrs by Western blot method; format: functional, cell-based
G-361 [13] = experiment: Induction of apoptosis in human G361 cells assessed as effect on Bcl2 protein levels at 10 uM incubated for 24 hrs by Western blot method; format: functional, cell-based
G-361 [14] = experiment: Induction of apoptosis in human G361 cells assessed as effect on Bcl2 protein levels at 1 uM incubated for 24 hrs by Western blot method; format: functional, cell-based
G-361 [15] = experiment: Induction of apoptosis in human G361 cells assessed as reduction Mcl1 protein levels at 10 uM incubated for 24 hrs by Western blot method; format: functional, cell-based
G-361 [16] = experiment: Induction of apoptosis in human G361 cells assessed as reduction Mcl1 protein levels at 1 uM incubated for 24 hrs by Western blot method; format: functional, cell-based

Structure (SMILES) | pIC50 (MCF7; Homo sapiens, MCF7, 72 h) | pIC50 (HeLa; Homo sapiens, HeLa, 72 h) | pIC50 (G-361 [1]; Homo sapiens, G-361, 72 h) | pIC50 (BJ; Homo sapiens, BJ, 72 h) | pIC50 (CCRF-CEM; Homo sapiens, CCRF-CEM, 72 h) | also measured
CC(=O)O[C@H]1CC[C@]2(C)[C@H]3CC[C@@H]4C5=C(C(C)C)C(=O)C[C@]5(C(=O)OCCN5CCCCC5)CC[C@@]4(C)[C@]3(C)CC[C@H]2C1(C)C [listing 1 of 2 here] | 5.15 | 5.06 | 5.15 | 4.31 |  | pIC50 (CCRF-CEM; ccrf-cem): 4.79; fold change (FC) (G-361 [2]): <=4
C=C(C)[C@@H]1CC[C@]2(C(=O)O[C@@H]3O[C@H](COC(C)=O)[C@@H](OC(C)=O)[C@H](OC(C)=O)[C@H]3OC(C)=O)CC[C@]3(C)[C@H](CC[C@@H]4[C@@]5(C)CC[C@H](O)C(C)(C)[C@@H]5CC[C@]43C)[C@@H]12 | < 4.30 | < 4.30 | < 4.30 | < 4.30 | < 4.30 | 
CC(=O)OC[C@H]1O[C@@H](OC(=O)[C@]23CC[C@@H](C(C)C)[C@@H]2[C@H]2CC[C@@H]4[C@@]5(C)CC[C@H](O)C(C)(C)[C@@H]5CC[C@@]4(C)[C@]2(C)CC3)[C@H](OC(C)=O)[C@@H](OC(C)=O)[C@@H]1OC(C)=O | 4.86 | 4.81 | 5.09 | < 4.30 | 4.73 | 
CC(=O)O[C@H]1CC[C@]2(C)[C@H]3CC[C@@H]4C5=C(C(C)C)C(=O)C(=O)[C@]5(C(=O)OCCN5CCOCC5)CC[C@@]4(C)[C@]3(C)CC[C@H]2C1(C)C | 4.74 | 5.26 | 5.66 | 4.60 | 5.09 | 
C=C(C)[C@@H]1CC[C@]2(C(=O)O[C@@H]3O[C@H](CO)[C@@H](O)[C@H](O)[C@H]3O)CC[C@]3(C)[C@H](CC[C@@H]4[C@@]5(C)CC[C@H](O)C(C)(C)[C@@H]5CC[C@]43C)[C@@H]12 | < 4.30 | < 4.30 | < 4.30 | < 4.30 | < 4.30 | 
CC(C)[C@@H]1CC[C@]2(C(=O)OCC(=O)O)CC[C@]3(C)[C@H](CC[C@@H]4[C@@]5(C)CC[C@H](O)C(C)(C)[C@@H]5CC[C@]43C)[C@@H]12 | < 4.30 | < 4.30 | < 4.30 | < 4.30 | < 4.30 | 
CC(C)[C@@H]1CC[C@]2(C(=O)OCCN3CCOCC3)CC[C@]3(C)[C@H](CC[C@@H]4[C@@]5(C)CC[C@H](O)C(C)(C)[C@@H]5CC[C@]43C)[C@@H]12 | 4.42 | 4.50 | 4.47 | 4.43 | 4.34 | 
C=C(C)[C@@H]1CC[C@]2(C(=O)OCCN3CCCCC3)CC[C@]3(C)[C@H](CC[C@@H]4[C@@]5(C)CC[C@H](O)C(C)(C)[C@@H]5CC[C@]43C)[C@@H]12 [listing 1 of 2 here] | 4.48 | 4.62 | 4.54 | 4.36 |  | pIC50 (CCRF-CEM; ccrf-cem): 4.58
C=C(C)[C@@H]1CC[C@]2(C(=O)OCCN3CCCCC3)CC[C@]3(C)[C@H](CC[C@@H]4[C@@]5(C)CC[C@H](O)C(C)(C)[C@@H]5CC[C@]43C)[C@@H]12 [listing 2 of 2 here] |  |  |  |  | 4.67 | pIC50 (MCF7; mcf7): 4.47; pIC50 (HeLa; hela): 4.61; pIC50 (G-361 [1]; g-361): 4.47; pIC50 (BJ; bj): 4.34
COCCOCCOC(=O)[C@]12CC[C@@H](C(C)C)[C@@H]1[C@H]1CC[C@@H]3[C@@]4(C)CC[C@H](O)C(C)(C)[C@@H]4CC[C@@]3(C)[C@]1(C)CC2 | 4.50 | 4.58 | 4.62 | 4.52 | 4.49 | 
CC(C)[C@@H]1CC[C@]2(C(=O)OCCBr)CC[C@]3(C)[C@H](CC[C@@H]4[C@@]5(C)CC[C@H](O)C(C)(C)[C@@H]5CC[C@]43C)[C@@H]12 | 4.34 | 4.67 | 4.37 | 4.44 | 4.45 | 
CC(=O)O[C@H]1CC[C@]2(C)[C@H]3CC[C@@H]4C5=C(C(C)C)C(=O)C[C@]5(C(=O)O[C@@H]5O[C@H](CO)[C@@H](O)[C@H](O)[C@H]5O)CC[C@@]4(C)[C@]3(C)CC[C@H]2C1(C)C | 5.18 | 5.03 | 5.17 | 4.32 | 4.91 | 
CC(C)[C@@H]1CC[C@]2(C(=O)O[C@@H]3O[C@H](CO)[C@H](O)[C@H](O)[C@H]3O)CC[C@]3(C)[C@H](CC[C@@H]4[C@@]5(C)CC[C@H](O)C(C)(C)[C@@H]5CC[C@]43C)[C@@H]12 | < 4.30 | < 4.30 | < 4.30 | < 4.30 | < 4.30 | 
CC(=O)OC[C@@]1(C(=O)OCCN2CCCC2)CC[C@]2(C)[C@H](CC[C@@H]3[C@@]4(C)CC[C@H](OC(C)=O)C(C)(C)[C@@H]4CC[C@]32C)C1=O | < 4.30 | < 4.30 | 4.69 | < 4.30 | 4.59 | 
CC(C)[C@@H]1CC[C@]2(C(=O)OCCN3CCCC3)CC[C@]3(C)[C@H](CC[C@@H]4[C@@]5(C)CC[C@H](O)C(C)(C)[C@@H]5CC[C@]43C)[C@@H]12 | 4.99 | 5.11 | 5.09 | 4.77 | 5.55 | 
CC(C)[C@@H]1CC[C@]2(C(=O)O[C@@H]3O[C@H](CO)[C@@H](O)[C@H](O)[C@H]3O)CC[C@]3(C)[C@H](CC[C@@H]4[C@@]5(C)CC[C@H](O)C(C)(C)[C@@H]5CC[C@]43C)[C@@H]12 | < 4.30 | < 4.30 | < 4.30 | < 4.30 | < 4.30 | 
CC(=O)OC[C@@]1(C(=O)OCCN2CCCC2)CC[C@]2(C)[C@H](CC[C@@H]3[C@@]4(C)CC[C@H](OC(C)=O)C(C)(C)[C@@H]4CC[C@]32C)[C@@H]1O | 5.00 | 4.97 | 5.13 | 4.85 | 5.08 | 
CC(=O)O[C@H]1CC[C@]2(C)[C@H]3CC[C@@H]4C5=C(C(C)C)C(=O)C[C@]5(C(=O)OCCN5CCCCC5)CC[C@@]4(C)[C@]3(C)CC[C@H]2C1(C)C [listing 2 of 2 here] |  |  |  |  |  | Activity (G-361 [3]): Active; Activity (G-361 [4]): Active; Activity (G-361 [5]): Active; Activity (G-361 [6]): Active; Activity (G-361 [7]): Active; Activity (G-361 [8]): Active; Activity (G-361 [9]): inactive; Activity (G-361 [10]): inactive; Activity (G-361 [11]): Active; Activity (G-361 [12]): Active; Activity (G-361 [13]): inactive; Activity (G-361 [14]): inactive; Activity (G-361 [15]): Active; Activity (G-361 [16]): Active
CC(C)[C@@H]1CC[C@]2(C(=O)OCCN3CCCCC3)CC[C@]3(C)[C@H](CC[C@@H]4[C@@]5(C)CC[C@H](O)C(C)(C)[C@@H]5CC[C@]43C)[C@@H]12 | 4.50 | 4.57 | 4.49 | 4.35 |  | pIC50 (CCRF-CEM; ccrf-cem): 4.71
CC(=O)OC[C@H]1O[C@@H](OC(=O)[C@]23CC[C@@H](C(C)C)[C@@H]2[C@H]2CC[C@@H]4[C@@]5(C)CC[C@H](O)C(C)(C)[C@@H]5CC[C@@]4(C)[C@]2(C)CC3)[C@H](OC(C)=O)[C@@H](OC(C)=O)[C@H]1OC(C)=O | 5.55 | 5.29 | 5.33 | < 4.30 | 5.07 | 
CC(=O)OC[C@@]1(C(=O)OCC(=O)OCc2ccccc2)CC[C@]2(C)[C@H](CC[C@@H]3[C@@]4(C)CC[C@H](OC(C)=O)C(C)(C)[C@@H]4CC[C@]32C)C1=O | < 4.30 | < 4.30 | < 4.30 | < 4.30 | < 4.30 | 
